Test results from US20140106387A1, “METHOD FOR CONTROLLING NAD(P)/NAD(P)H RATIO BY OXIDOREDUCTASE” (MD BIOALPHA CO., LTD., priority 2006, published 2014).

Legend:
[1] = beta-oxidation assay: 14C-palmitic acid incorporated into liver triglyceride; format: in vivo, mouse; settings: DIO mice fed 50 mg/kg for 7 days; liver removed 10 min after 14C-palmitic acid IV
Procedure: The injection solution prepared in Section 1 was injected into tail veins of DIO mice at a dose of 10 microCi/150 μl/head, and the liver was removed 10 min later.
The removed liver was immediately and rapidly frozen in liquid nitrogen and weighed. A 5-fold weight of a 5 mM Tris-HCl buffer solution containing 0.25 M sucrose, 5 mM MgCl2, 1 mM mercaptoethanol and 0.5 mM EDTA was added to the liver tissues which were then homogenized. Equal amounts of each sample was taken and transferred to fresh 15 mL containers to which a 2.5-fold amount of C/M solution (chloroform:MetOH=2:1) was added, respectively. The mixtures were thoroughly mixed using a homogenizer for 2 min, centrifuged at 2500 rpm for 20 min to separate chloroform layers that were then transferred to fresh containers. The remaining materials were thoroughly mixed with 2-fold amounts of the C/M solution for 2 min, and centrifuged to separate chloroform layers. […] Then, more than 10-fold volumes of a toluene cocktail solution were added to chloroform layers of the vials and the mixtures were thoroughly mixed using a stirrer, and radioactivity was measured using a scintillation counter.
10 μCi of 14C-palmitic acid was IV-injected to a tail vein of mice and 10 min later the liver was removed and homogenized Fat was extracted from the homogenizate, and radioactivity was measured by a liquid scintillation counter.

[2] = body weight, dietary intake, fat and tissue histology in C57BL/6 DIO mice; format: in vivo, mouse
Procedure: The removed tissues were cut into a proper size, fixed in 10% formalin, washed with water, and embedded in paraffin to prepare blocks, according to a conventional method. The thus-prepared blocks were sectioned into a 4 μm thickness and subjected to hematoxylin and eosin (H&E) staining for observation of general changes.
For observation of cellular microstructures, the removed tissues were sliced into a size of 1 mm^3, pre-fixed in 2.5% glutaraldehyde (0.1M PBS, pH 7.4, 4° C.) for 2 to 4 hours, washed, and post-fixed in a 1% osmium tetroxide solution for 2 hours. Then, according to a conventional method, the tissues were dehydrated with serial concentrations of ethanol and the solvent was replaced with propylene oxide. The tissues were embedded in an epoxy resin mixture, and the embedded tissues were subjected to thermal polymerization to prepare blocks. The thus-prepared blocks were sectioned into a thickness of 0.5 to 1 μm using a ultramicrotome and stained with toludine blue. Observation sites were selected under a light microscope and the tissues were ultrasectioned to a thickness of 60 to 70 nm. The ultrasectioned specimens were subjected to dual staining of uranyl acetate and lead citrate and were observed under a transmission electron microscope (H-600, Hitachi, Japan) at an accelerating voltage of 75 kV.
Cryosectioned tissues were sectioned into a thickness of 5 μm, dried in air for 1 hour and reacted in a filtered 0.5% oil red 0 solution for 20 min. The tissue sections were washed with tap water, subjected to double staining with Gill hematoxylin for 20 to 30 sec, water-washed, and observed.
Adipose tissues were sectioned into a thickness of 3 μm, deparaffinized, exposed to antigens in a citrate buffer under high pressure for 4 min and washed. The mixture was reacted in a 3% hydrogen peroxide solution for 10 min, and the reaction product was washed three times with a TBST solution for 3 min. The product was reacted with primary antibodies (guinea pig, anti-perilipin) against 200-fold diluted perilipin for 1 hour and washed with a TBST solution. Secondary antibodies (donkey anti-guinea pig, cy3-conjugated) were added and reacted with the product for 30 min. The reaction product was washed three times with a TBST solution for 3 min, mounted with Fluormount G and then observed under a fluorescence microscope.
Animals were continuously fed high-fat diet pellets for 3 to 4 weeks, thereby establishing DIO mice. Mice were raised in a breeding room with a 12 h/12 h light/dark D) cycle. Animals were divided into three groups, i.e., a group with administration of physiological saline (n=3), a group with administration of a vehicle (n=5) and a group with administration of 50 mg/kg of a candidate compound (n=7). Samples were orally administered to animals every day. On Days 7, 28 and 56, each tissue was removed, frozen in liquid nitrogen, and stored at […] for short and long periods of time.
All experimental animal procedures were performed according to a guideline of Institutional Animal Care and Use Committee, Chungnam National University School of Medicine. OLETF rats were purchased from Otsuka Research Institute. Male ob/ob and C57BL/6 mice were purchased from Jackson Laboratory. Animals were housed in a breeding room maintained at a constant temperature of […] and a 12 h/12 h light/dark (L/D) cycle. 4-week-old C57BL/6 male mice were fed ad libitum high fat diet (HFD, 24% (w/w) and 45% calories as fat, Research Diets Inc., New Brunswick, N.J. 08901, US) for 7 weeks. Mouse groups were divided into an untreated group, a vehicle-treated group (calcium silicate), a pair-fed group and a candidate compound-treated group (calcium silicate-coated […] nanoparticles). Body weight and dietary intake of animals were daily measured. Upon completion of experiments, some mice of each group were anesthetized and received MRI examinations. The remaining mice of the groups were anatomized and tissue weight thereof was measured. […]

[3] = test system: AMPK; experiment: AMPK kinase assay in mouse tissues; format: in vivo
[4] = test system: MN9X cells; experiment: intracellular ATP concentration in non-dopaminergic neuronal cells; format: cell-based; settings: 5 μM
Procedure: Dopaminergic (MN9D) and non-dopaminergic (MN9X) neuronal cells were treated with 5 μM pyran-1,2-naphthoquinone and the ATP concentration was periodically measured.

[5] = test system: HepG2 cells; experiment: calcium influx (Fluo-4) in HepG2 cells; format: cell-based, human
Procedure: Cells were grown on a coverslip in a culture medium for 24 hours, maintained in an RPMI 1640 serum-free medium for 1 hour, and pretreated with a calcium indicator Fluo-4 (5 μM) for 30 min. After pretreatment, the coverslip was mounted on a slide glass. Changes in an intracellular calcium concentration were observed using a fluorescence microscope (Carl Zeiss) for 30 sec, and cells were treated with a candidate compound (e.g. pyran-1,2-naphthoquinone) simultaneously with consecutive imaging of calcium changes using a fluorescence microscope (Carl Zeiss) for 2 sec. […] Changes in the intracellular calcium concentration were observed using a fluorescence microscope (Carl Zeiss) for 30 sec, and cells were treated with pyre-1,2-naphthoquinone (10 μM), followed by continuous shooting of calcium changes using a fluorescence microscope for 2 sec. Using an LSM Image Browser program (Carl Zeiss), 300 images taken for 10 min every 2 seconds were sorted and ordered in a time sequence and plotted on a graph.
For determination of the inner mitochondrial membrane potential (ΔΨm), 20 nM of TMRE (tetramethylrhodamine ethyl ester) as a fluorescent indicator was continuously applied to be loaded on cells. In order to monitor mitochondrial Ca^2+, cells on glass coverslips were loaded with 10 μM Rhod-2 AM via cold loading/warm incubation. In order to monitor cytosolic Ca^2+, cells were co-loaded with 10 μM Fluo-4 AM at 37′C for 30 min. […] Images for TMRE (red fluorescence), Rhod-2 (red fluorescence) and Fluo-4 (green fluorescence) were obtained using an inverted Zeiss 510META laser-scanning confocal microscope equipped with ×63 numerical aperture, 1.4 oil-immersion planapochromat lens. Green fluorescence and red fluorescence were illuminated with light of 488 nm and 543 nm. […]
Cells were cultured for 24 hours and then pre-treated with Fluo-4 for 30 min. Cells immobilized on a coverslip were transferred to a slide glass and treated with pyrano-1,2-naphthoquinone (10 μM), and at the same time images were taken every 2 seconds for 10 min using a fluorescence microscope.

[6] = DIO mice, oral 50 mg/kg, data not shown

CC1(C)CCC2=C(O1)c1ccccc1C(=O)C2=O [βL, 2,2-Dimethyl-3,4-dihydro-2H-benzo[h]chromene-5,6-dione]
amount of 14C-palmitic acid incorporated into hepatic triglyceride (TG), lower than vehicle-treated mice [1]: about 45%
EM of liver tissues ([2]; C57BL/6 DIO mice, 56 days): remarkably decreased fat vacuoles and glycogen stores
accumulated fat in the liver (oil red O staining), diminished compared to control ([2]; C57BL/6 DIO mice, 56 days): ≥ 90%
visceral fat and body weight ([2]; C57BL/6 DIO mice, 56 days): conspicuous decreases
amounts of subcutaneous, mesenteric, perirenal and gonadal fats ([2]; C57BL/6 DIO, first four weeks of 56 days): gradually decreased
number of type 1 myofibers in the soleus muscle ([2]; DIO mice): increased
size of adipocytes, brown adipose tissues (H&E staining, EM) ([2]; Day 56, 50 mg/kg daily oral): remarkably decreased
size of adipocytes, gonadal adipose tissues (perilipin staining) ([2]; Day 56, 50 mg/kg daily oral): remarkably decreased
body weight ([2]; obese mice on high-fat diet, 50 mg/kg daily oral, 56 days): continuous weight loss for 56 days
dietary intake ([2]; obese mice, 50 mg/kg daily oral, 56 days): decreases in dietary intake for the first two weeks
muscle mitochondria (EM) ([2]; βL-treated DIO mice and ob/ob mice): normal morphology and increased numbers of mitochondria
AMPK activity in the liver and gonadal adipose tissues ([3]; C57BL/6 mice, 5 mg/kg tail vein, 2 hours and 4 hours): increased AMPK activity
AMPK activity in liver, EDL and soleus muscle vs vehicle-treated control ([3]; DIO mice, oral 50 mg/kg): higher
duration of oral administration effect on AMPK activity [3, 6]: about 6 hours
time of maximum oral administration effect on AMPK activity [3, 6]: 2 h
intracellular ATP concentration [4]: decreased
cytosolic Ca2+ concentration ([Ca2+]c) and mitochondrial Ca2+ concentration ([Ca2+]m) ([5]; Fluo4 and Rhod-2-AM fluorescence, cells not given): increases
time of calcium peak after treatment ([5]; HepG2, 10 μM): about 10 sec
